Patent US6689788B1, “Method and composition for treatment of inflammatory bowel disease” (University of Florida, priority 2000, dated 2004)
Entries after “also recorded” stand apart in the source; their conditions may differ.

How the values were obtained:
[1] = tested on: acetic acid-induced colitis; assay: acetic acid-induced colitis in the rat, test drug i.r. 30 minutes before acetic acid; format: in vivo; settings: for damage in the colons: 650 μmol/kg i.r. 30 minutes before acetic acid, colons assessed 24 hours later
Description: A typical model of IBD in acetic acid-induced colitis in the rat has been described by Krawisz et al in Amer. J. Proc. Gastro. Col. Rec. Surg., Vol. 31, pages 11-18 (1980); and by Sharon et al in Gastroenterology, Vol. 88, pages 55-63 (1985) and Vol. 86, pages 453-460 (1984). Acetic acid-induced colitis is characterized by the movement of inflammatory cells into the colon, with the number of such cells in the mucosa being measured by the activity of myeloperoxidase, a marker enzyme for these cells. Positive desirable activity is indicated by a reduction in the high levels of myeloperoxidase caused by acetic acid. Typically, Sprague-Dawley rats from Charles River Laboratories, Portage, Mich. (either sex, weight approximately 250 g) are dosed with test compounds and controls. Thereafter, the rats are given an intracolonic enema of acetic acid which produces a severe inflammatory response in the colon of a healthy rat characterized by rectal bleeding, diarrhea, epithelial erosions and destructions of crypts and gland cells. Twenty-four hours later, the test and control animals are sacrificed and the distal ten centimeters of the colons are removed and opened longitudinally. The tissue lesions contained within the removed, opened section of the colons are scored. After the systematic evaluation of the impact of various fasting times, use of vehicles, the time interval between pre-treatment and administration of the acetic acid and altering the concentration of acetic acid, the final protocol for the experiments is to fast the rats for 30 hours in hanging wire cages, anesthetize the animals with sodium pentobarbital, administer the test drug 1 cc intrarectally (i.r.) either as a suspension or a solution in water, and to give the acetic acid (7.5% in water) 1 cc i.r. 30 minutes later. The rats are sacrificed 24 hours later and the colons are removed and assessed for damage.

[2] = tested on: acetic acid-induced colitis; assay: reversal studies, compound given 30 minutes after 2.5% acetic acid; format: in vivo, rat
Description: (§1) The lesions were apparently resolving and with some lamina proprial fibrosis and considerable hyperplasia of submucosal lymphoid tissue. […] This is a highly desirable property, as patients suffering from IBD are already anemic due to disease-related blood loss.

mice = settings: mouse, in vivo
Description: DFO and DFT given i.r. at a dose of 650 μmol/kg were ineffective. […] See, for example, FIGS. 7 and 8.

[3] = iron binding in a test tube; format: physicochemical
Description: as §1

iron = iron chelator activity when given to rats; format: in vivo
Description: as §1

Row | SMILES | damage in the colons [1] | lesions compared with the control group [2] | acute toxicity (mice) | dose response study, prevention of severe lesions ([1]; 162.5 μmol/kg (41.5 mg/kg) at 1 cc i.r.) | head-to-head comparison with 5-ASA or its commercially available formulation (Rowasa) ([1]; compound 650 μmol/kg vs. 5-ASA/Rowasa 1742 μmol/kg) | iron binding [3] | activity as an iron chelator (iron; orally) | activity as an iron chelator (iron; subcutaneously (s.c.))
1 | C[C@]1(C(=O)O)CSC(c2ncccc2O)=N1 [DFT, reference compound] | ineffective | – | – | – | – | – | – | –
2 | CC(=O)N(O)CCCCCNC(=O)CCC(=O)N(O)CCCCCNC(=O)CCC(=O)N(O)CCCCCN [DFO, reference compound] | ineffective | – | – | – | – | – | – | –
3 | Cc1ccc(O)c(C2=NC(C(=O)O)CC2)c1 (stereo not shown) [2H-pyrrolecarboxylic acid, 3,4-dihydro-5-(2-hydroxy-5-methylphenyl)-2H-pyrrole-2-carboxylic acid] | very little damage; also recorded: considerably less damage | less severe and less active | virtually non-toxic | severe lesions being prevented in a majority of rats | far superior | binds iron remarkably well | inactive | inactive
